# Test results as given in US20220202885A1, “ONCOLYTIC VIRUS WITH IMPROVED SAFETY AND […]” (BIONOXX INC., priority 2019, published 2022).
# Key:
# [1] = system: human breast cancer cell line (MDA-MB-231) xenograft; assay: Tumor volume in human breast cancer cell line-transplanted mice (Example 11); format: in vivo, mouse; settings: MDA-MB-231 xenograft Balb/c nu/nu mice
# [2] = system: mouse colorectal cancer cell line (CT-26) allograft; assay: Tumor volume in mouse colorectal cancer cell line-transplanted mice (Example 13.2); format: in vivo; settings: CT-26 allograft Balb/c mice; WOTS-418 1×10^8 pfu i.p. D0, D3 and 1×10^7 pfu i.t. D14, D21; hydroxyurea 30 mg/kg i.p. once a day
# [3] = system: CD8+ T cells secreting IFN-γ; format: in vivo, mouse; settings: CT-26 allograft Balb/c mice; same doses and regimens as tumor volume test; co-culture with CT-26 cells
substance,measurement,setting,value
hydroxyurea,tumor volume on day 31 relative to the initial tumor volume,"[1]; HU 30 mg/kg i.p. twice a day, day 31",≥ 5 fold
same,tumor growth (tumor volume measured for 31 days),"[1]; WOTS-418 1×10^7 pfu (D0 i.p., D10 i.t.), hydroxyurea 30 mg/kg i.p. twice a day",tumor growth was not inhibited
same,tumor volume on day 25 compared with the control group,[2],suppressed tumor volume
same,"CD8+ T cells secreting IFN-γ among spleen CD8+ T cells, compared with control mice (ELISPOT)",[3],abundant
